Reference: patent EP2607478A1, “Phenanthroline treated MSC” (Universiteit Twente, priority 2011, dated 2013)

What was measured:
[1] = test system: MSCs; assay: Protein expression analysis (Luminex assay) of treated MSCs; format: cell-based, Human; details: primary MSCs, 2 days; for VEGF secretion / secretion of IL-8: 150 µM DFO or 200 µM PHE, measured in cell lysates; for secretion of IL-8: basic 15-25 pg/mL
Procedure: MSCs were seeded at 5000 cells/cm^2 in T25 flasks. […] After 2 days, cells were lysed with 250 µL RIPA buffer with addition of protease/phosphatase inhibitors (Roche). Total protein concentrations were determined using a BCA kit (Pierce) and 10 µg of total protein was used to determine concentrations of VEGF, IL-8, basic fibroblast growth factor (bFGF), […] stimulating factor (G-CSF) and epidermal growth factor (EGF) using a Luminex assay (Invitrogen) according to the manufacturer's protocol. Briefly, cells and standards were incubated with fluorescent beads, followed by incubation with a biotinylated detection antibody. After incubation with streptavidin-R-Phycoerythrin and washing, both the fluorescence of the coupled beads and the R-phycoerythrin were measured using a Luminex® FlexMap™.

[2] = test system: MSCs; assay: Gene expression analysis by real-time qPCR in treated MSCs; format: cell-based, Human; details: for expression of Il-8, VEGF, KDR and Foxc2: 2 days treatment, medium refreshed, 2 more days in basic medium (Figure 8); for VEGF expression: after 2 days of treatment and 2 more days of incubation with fresh medium (Figure 8)
Procedure: MSCs were seeded in triplicate in 6-well plates at 5000 cells/cm^2 and allowed to attach for 10-15 hours in proliferation medium. Upon reaching near confluency, cells were treated as described above. After 2 days of treatment and 2 subsequent days of incubation with fresh medium, cells were lysed immediately with TRIzol. RNA was isolated using a Bioke RNA II nucleospin RNA isolation kit (Machery Nagel) and RNA concentrations were measured using an ND100 spectrophotometer (Nanodrop technologies, USA). cDNA was synthesized from 100 ng of RNA, using iScript (BioRad) according to the manufacturer's protocol. For qualitative PCR, a master mix, containing distilled water, forward primer, reverse primer (Sigma Genosys), BSA, and SYBR green I mix (all from Invitrogen) was prepared. Real-time qPCR was performed in a Light-Cycler (Roche). Light-Cycler data was analyzed using the fit points method of Light-Cycler software. The baseline was set at the lower log-linear part above baseline noise and the crossing […] (Ct value) was determined. Ct values were normalized to the 18S housekeeping gene and delta Ct (Ct, control ― Ct, sample) was used to calculate the upregulation in gene expression (53).

[3] = test system: male C57/BL6 mice; assay: In vivo murine matrigel plug assay; details: matrigel plug with DFO (150 uM) or PHE (200 uM), subcutaneous, 7 days, versus PBS
Procedure: In vivo angiogenesis analysis was performed using a matrigel plug assay in male C57/BL6 mice (age 8 weeks)(Charles River). Growth factor reduced matrigel (0.5 ml) (BD Biosciences) was injected into the subcutaneous space on the dorsal side of mice on both the left and right flank. […] Mice were sacrificed 7 days post-implantation. Matrigel plugs were excised and processed for histological analysis. Paraffin sections (5 um) were stained with Hematoxylin, Phloxine and Saffron (HPS) or anti-CD31 (PECAM, Abcam, Cambridge, UK). Vascular ingrowth was scored in a double blinded fashion and quantified using the following method: every individual section was scored for the degree of ingrowth, using five different categories of ingrowth (1=minimal ingrowth at the border of the plug, 5=capillary ingrowth throughout the total plug), and the mean ingrowth score per group was defined (6 sections per plug, 7 mice per group). The endothelial nature of the infiltrating cells was confirmed by the CD31 staining,
Data was analyzed using one-way ANOVA followed by Tukey's multiple comparison's test (P<0,05). For the analysis of the ingrowth in the matrigel plug statistical analysis was performed using ANOVA and unpaired T test.

[4] = test system: immortalized MSC cell line; assay: Screen for hypoxia mimics with hypoxia response element reporter in immortalized MSC; format: cell-based; details: clonally expanded immortalized MSC cell line
Excerpt: Because previous screening methods were based mostly on cancer cells and the results thereof can not necessarily be extrapolated to MSC, a novel screening method was developed, based on an immortalized MSC. Using this screening method, we quickly screened a large panel of potential compounds for effects on MSC. Such screening method is useful for screening a large panel of compound for their ability to modulate (i.e. increase or decrease) an angiogenic capacity of a MSC. […]
It is possible to use for instance an (immortalized) MSC and transfect it with a HRE-luciferase construct as described in Said et al (56) or with a 5HRE-ODD-luc construct described in Saha et al (57). Detection of transcription of the reporter gene is then easily achieved by measuring luciferase activity (luminescence) of the cells after contacting said MSC with the compound. […] As a consequence, reporter gene expression is increased, which can be detected, in case of luciferase, by measuring an increase in luminescence in these cells. Vice versa, decreased luminescence is indicative for a compound able to inhibit angiogenesis, which compound may subsequently be used for anti-angiogenic therapy, for instance in anti-tumor therapy. […]

[5] = 200 µM PHE, compared to DFO and hypoxia

SMILES | VEGF secretion [1] [pg/mL] | secretion of IL-8 [1] [pg/mL] | secretion of basic fibroblast growth factor (bFGF) [1, 5] | secretion of growth-colony stimulating factor (G-CSF) [1, 5] | expression of Il-8, VEGF, KDR and Foxc2 [2] | VEGF expression [2] | capillary ingrowth [3] | ability to mimic hypoxia in MSCs [4]
c1cnc2c(c1)ccc1cccnc12 [PHE, 1, 10-phenanthroline] | 65 | 300 to 500 | reduced | reduced | still significantly increased | still highly expressed | significantly increased capillary ingrowth | able to mimic hypoxia in MSCs
CC(=O)N(O)CCCCCNC(=O)CCC(=O)N(O)CCCCCNC(=O)CCC(=O)N(O)CCCCCN [DFO, reference compound] | 140 | 15 to 25 |  |  | returned to basal levels | comparable to non-treated cells | significantly increased capillary ingrowth | 
